Test results from ChEMBL document CHEMBL1201862, “PubChem BioAssay data set” (2004).
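In this assay, cells in 96-well plates receive the compound at five concentrations for 48 hours. Endpoints are linearly interpolated between the surrounding concentrations. GI50 is the concentration that inhibits growth by half.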 The source made the active and inactive calls. Rule as the data show it: active = GI50 up to about 1.1 µM and inactive = higher.

Columns and labels:
Assay in all cases: NCI tumour cell line growth inhibition, 48 h
[1] = system: UO-31
[2] = system: OVCAR-8
[3] = system: NCI-H23
[4] = system: UACC-62
[5] = system: MDA-MB-435
[6] = system: NCI-H226
[7] = system: COLO 205
[8] = system: SK-MEL-2
[9] = system: SNB-75
[10] = system: LOX IMVI
[11] = system: Hs-578T
[12] = system: SNB-19
[13] = system: MOLT-4
[14] = system: HL-60
[15] = system: KM12
[16] = system: HCC 2998
[17] = system: RPMI-8226
[18] = system: HOP-92
[19] = system: MDA-MB-231
[20] = system: OVCAR-5
[21] = system: CCRF-CEM
[22] = system: SF-295
[23] = system: TK-10
[24] = system: NCI/ADR-RES
[25] = system: UACC-257
[26] = system: IGROV-1
[27] = system: RXF 393
[28] = system: HCT-15
[29] = system: PC-3
[30] = system: NCI-H460
[31] = system: SW-620
[32] = system: T47D
[33] = system: CAKI-1
[34] = system: A549
[35] = system: EKVX
[36] = system: NCI-H522
[37] = system: HCT-116
[38] = system: SK-MEL-28
[39] = system: MCF7
[40] = system: SF-268
[41] = system: SF-539
[42] = system: HOP-62
[43] = system: BT-549
[44] = system: SR
[45] = system: OVCAR-4
[46] = system: ACHN
[47] = system: U-251
[48] = system: K562
[49] = system: A498
[50] = system: SK-MEL-5
[51] = system: 786-0
[52] = system: SK-OV-3
[53] = system: Malme-3M
[54] = system: HT-29
[55] = system: M14
[56] = system: OVCAR-3
[57] = system: DU-145
[58] = system: SN12C
[59] = system: MDA-N

SMILES: O=C1C=C(OCCCCl)C(=O)c2c(O)ccc(O)c21
- GI50 [1]: 1180 nM (inactive)
- GI50 [2]: 2070 nM (inactive)
- GI50 [3]: 237 nM (active)
- GI50 [4]: 286 nM (active)
- GI50 [5]: 206 nM (active)
- GI50 [6]: 1840 nM (inactive)
- GI50 [7]: 245 nM (active)
- GI50 [8]: 1020 nM (active)
- GI50 [9]: 1400 nM (inactive)
- GI50 [10]: 256 nM (active)
- GI50 [11]: 2420 nM (inactive)
- GI50 [12]: 1800 nM (inactive)
- GI50 [13]: 2110 nM (inactive)
- GI50 [14]: 792 nM (active)
- GI50 [15]: 1780 nM (inactive)
- GI50 [16]: 1910 nM (inactive)
- GI50 [17]: 2060 nM (inactive)
- GI50 [18]: 1420 nM (inactive)
- GI50 [19]: 1740 nM (inactive)
- GI50 [20]: 1430 nM (inactive)
- GI50 [21]: 661 nM (active)
- GI50 [22]: 820 nM (active)
- GI50 [23]: 1810 nM (inactive)
- GI50 [24]: 2650 nM (inactive)
- GI50 [25]: 176 nM (active)
- GI50 [26]: 1800 nM (inactive)
- GI50 [27]: 1690 nM (inactive)
- GI50 [28]: 422 nM
- GI50 [29]: 1930 nM (inactive)
- GI50 [30]: 1210 nM (inactive)
- GI50 [31]: 277 nM (active)
- GI50 [32]: 2190 nM (inactive)
- GI50 [33]: 1850 nM (inactive)
- GI50 [34]: 266 nM (active)
- GI50 [35]: 1790 nM (inactive)
- GI50 [36]: 2360 nM (inactive)
- GI50 [37]: 459 nM (active)
- GI50 [38]: 843 nM (active)
- GI50 [39]: 195 nM (active)
- GI50 [40]: 1730 nM (inactive)
- GI50 [41]: 1380 nM (inactive)
- GI50 [42]: 1420 nM (inactive)
- GI50 [43]: 1090 nM (active)
- GI50 [44]: 871 nM (active)
- GI50 [45]: 1250 nM (inactive)
- GI50 [46]: 1590 nM (inactive)
- GI50 [47]: 2010 nM (inactive)
- GI50 [48]: 1260 nM (inactive)
- GI50 [49]: 2130 nM (inactive)
- GI50 [50]: 163 nM (active)
- GI50 [51]: 1560 nM (inactive)
- GI50 [52]: 2240 nM (inactive)
- GI50 [53]: 167 nM (active)
- GI50 [54]: 581 nM (active)
- GI50 [55]: 188 nM (active)
- GI50 [56]: 505 nM (active)
- GI50 [57]: 303 nM (active)
- GI50 [58]: 350 nM (active)
- GI50 [59]: 184 nM (active)

SMILES: COc1ccc(-c2cc(=O)c3ccc(O)cc3o2)cc1OC
- GI50 [2]: 37400 nM (inactive)
- GI50 [3]: 52100 nM (inactive)
- GI50 [4]: 33800 nM (inactive)
- GI50 [5]: 45500 nM (inactive)
- GI50 [6]: > 100000 nM (inactive)
- GI50 [7]: 68400 nM (inactive)
- GI50 [8]: > 100000 nM (inactive)
- GI50 [9]: 10200 nM (inactive)
- GI50 [10]: 33500 nM (inactive)
- GI50 [11]: 32700 nM (inactive)
- GI50 [12]: 35600 nM (inactive)
- GI50 [13]: 25600 nM (inactive)
- GI50 [14]: 23500 nM (inactive)
- GI50 [15]: 59300 nM (inactive)
- GI50 [16]: 46900 nM (inactive)
- GI50 [17]: 22800 nM (inactive)
- GI50 [18]: 56600 nM (inactive)
- GI50 [19]: 77400 nM (inactive)
- GI50 [20]: > 100000 nM (inactive)
- GI50 [21]: 25800 nM (inactive)
- GI50 [22]: 31300 nM (inactive)
- GI50 [23]: 59300 nM (inactive)
- GI50 [24]: 34900 nM (inactive)
- GI50 [25]: > 100000 nM (inactive)
- GI50 [26]: 32900 nM (inactive)
- GI50 [27]: 5850 nM (inactive)
- GI50 [28]: 32400 nM
- GI50 [29]: 32300 nM (inactive)
- GI50 [30]: 25500 nM (inactive)
- GI50 [31]: 37800 nM (inactive)
- GI50 [32]: 25900 nM (inactive)
- GI50 [33]: 25700 nM (inactive)
- GI50 [34]: 38500 nM (inactive)
- GI50 [35]: 43700 nM (inactive)
- GI50 [36]: 16600 nM (inactive)
- GI50 [37]: 30200 nM (inactive)
- GI50 [38]: 71900 nM (inactive)
- GI50 [39]: 25800 nM (inactive)
- GI50 [40]: > 100000 nM (inactive)
- GI50 [41]: 23400 nM (inactive)
- GI50 [42]: 25500 nM (inactive)
- GI50 [43]: 46500 nM (inactive)
- GI50 [44]: 13000 nM (inactive)
- GI50 [45]: 24700 nM (inactive)
- GI50 [46]: 48900 nM (inactive)
- GI50 [47]: 43900 nM (inactive)
- GI50 [48]: 30000 nM (inactive)
- GI50 [49]: 34000 nM (inactive)
- GI50 [50]: 15200 nM (inactive)
- GI50 [51]: 56900 nM (inactive)
- GI50 [52]: 41400 nM (inactive)
- GI50 [53]: 67100 nM (inactive)
- GI50 [54]: 41800 nM (inactive)
- GI50 [55]: 72800 nM (inactive)
- GI50 [56]: 57300 nM (inactive)
- GI50 [57]: 48000 nM (inactive)
- GI50 [58]: 41300 nM (inactive)
- GI50 [59]: 47600 nM (inactive)
